The values that follow come from EP0771196B1, “EXCITATORY AMINO ACID RECEPTOR ANTAGONISTS” (ELI LILLY AND COMPANY, priority 1994, dated 1996).

By IC50 is commonly meant the concentration at which inhibition is half-maximal. Read a low IC50 as higher potency.

In assay [1] the test system is metabotropic glutamate receptors. Description: Displacement of 1S,3R-ACPD-sensitive [3H]glutamate binding to rat brain cell membranes. The following applies: crude membranes of rat forebrain.
A further assay has as its system Rats. Nature of the assay: Conditioned active avoidance model. Type of assay: in vivo. The text has this: This model was developed in the early 50s and 60s (Pfeiffer & Jenney, Ann. N.Y. Acad. Sci., 66:[…], 1957; Maffii, J. Pharm. Pharmacol., 11: 129-139, 1959; Cook & Weidley, Ann; N.Y. Acad. Sci., 66: […], 1957; Janke, Handbook of Experimental Pharmacology, Vol. 55/I, New York: Plenum Press, 1978) and is still the primary model used to screen compounds for antipsychotic efficacy.
Rats were individually placed in a sound attenuated, two compartment test chamber. Active avoidance testing consisted of 20 trials each day. On each trial a light (130 v.) and a sound (85 dbA) were delivered simultaneously and 5 seconds later a 5 mA shock was delivered to the floor of the chamber. After 5 seconds the footshock, the light, and the sound were terminated. The animals learned to move from one side of the chamber to the other side when the light and sound cues were presented to avoid shock (avoidance responding) or the rat moved when the shock was administered (escape). Data were tabulated as mean percent escape or mean percent to avoidance for each test day. Prior to drug testing all animals were trained to successfully avoid shock delivery on 90% of trials.
This profile on conditioned avoidance is indicative of antipsychotic efficacy.

Assay [2] deals with metabotropic glutamate receptors. Description: Displacement of 1S,3R-ACPD-sensitive [3H]glutamate binding to rat brain cell membranes. Particulars: crude membranes of rat forebrain; inhibition of [3H]glutamate binding. How it is done: The binding of [^3H]glutamate was conducted with crude membranes of rat forebrain as described by Schoepp and True. Schoepp and True, Neuroscience Lett., 145, 100-104 (1992) and True and Schoepp, Society for Neuroscience Abstracts, 19, 470 (1993). IC50 values for the inhibition of [^3H]glutamate binding, or the percent displacement of [^3H]glutamate binding at a 10 µM concentration, of the formula I compound, is shown in Table II.

[3] abbreviates: 0, 1, 3, 10 and 30mg/kg, i.p. 20 minutes prior to testing.

With `NC(CC(Cc1ccccc1)Cc1ccccc1)(C(=O)O)[C@H]1C[C@@H]1C(=O)O` (mixture of isomers) [Example 51, 2SR- and 2RS-2-amino-2-(1SR,2SR-2-carboxycyclopropan-1-yl)-4-benzyl-5-phenylpentanoic acid], the “ACPD-Sensitive [^3H]Glutamate Binding % Displacement @ 1 µM” value in assay [1] (1 µM compound) was “(15% @ 1 µM)”. For the compound `NC(CCc1cccc(F)c1)(C(=O)O)[C@H]1C[C@@H]1C(=O)O` (mixture of isomers) [Example 81, 2SR- and 2RS-2-amino-2-(1SR,2SR-2-carboxycyclopropan-1-yl)-4-(3-fluorophenyl)butanoic acid], the “ACPD-Sensitive [^3H]Glutamate Binding % Displacement @ 0.1 µM” value in assay [1] (0.1 µM compound) is reported as “(57% @ 0.1 µM)”. For the compound `N[C@](CC1c2ccccc2Oc2ccccc21)(C(=O)O)[C@H]1C[C@@H]1C(=O)O` [Example 72], in the assay with Rats (setting [3]), the avoidance responding result is recorded as “dose related decrease in avoidance responding” and the escape responding entry is given as “not affecting escape responding”. In addition, in the assay on Rats (summary statement), the “activity in the conditioned active avoidance model” value is recorded as “active”. Besides, the IC50 in assay [2] stood at 0.014 µM. In assay [2], `NC(CCc1cccc2ccccc12)(C(=O)O)[C@H]1C[C@@H]1C(=O)O` (mixture of isomers) [Example 18, 2SR- and 2RS-2-amino-2-(1SR,2SR-2-carboxycyclopropan-1-yl)-4-(naphth-1-yl)butanoic acid] gave an IC50 of 0.14 µM. Same read-out and setting: as for `Cn1cc(CCC(N)(C(=O)O)[C@H]2C[C@@H]2C(=O)O)c2ccccc21` (mixture of isomers) [Example 61, 2SR- and 2RS-2-amino-2-(1SR,2SR-2-carboxycyclopropan-1-yl)-4-(1-methylindol-3-yl)butanoic acid], the figure is 0.28 µM; as for `CCCCCCCCC(N)(C(=O)O)[C@H]1C[C@@H]1C(=O)O` (mixture of isomers) [Example 13, 2SR- and 2RS-2-amino-2-(1SR,2SR-2-carboxycyclopropan-1-yl)decanoic acid], 1.7 µM. On the same count and under the same terms, with `NC(CCc1cccc(Oc2ccccc2)c1)(C(=O)O)[C@H]1C[C@@H]1C(=O)O` (mixture of isomers) [Example 60, 2SR- and 2RS-2-amino-2-(1SR,2SR-2-carboxycyclopropan-1-yl)-4-(3-phenoxyphenyl)butanoic acid] the figure was 0.17 µM; with `NC(CC(c1ccccc1)c1ccccc1)(C(=O)O)C1CC1C(=O)O` (stereo not drawn) [Example 5, 2SR- and 2RS-2-amino-2-(1SR,2SR-2-carboxycyclopropan-1-yl)-4,4-diphenylbutanoic acid], 0.076 µM. Still for that read-out and setting: with `NC(CC(c1ccc(Cl)cc1)c1ccc(Cl)cc1)(C(=O)O)C1CC1C(=O)O` (stereo not drawn) [Example 46, 2SR- and 2RS-2-amino-2-(1SR,2SR-2-carboxycyclopropan-1-yl)-4,4-di(4,4'-dichloro)phenylbutanoic acid] the figure was 0.077 µM. With `NC(CCc1ccccc1C(F)(F)F)(C(=O)O)[C@H]1C[C@@H]1C(=O)O` (mixture of isomers) [Example 57, 2SR- and 2RS-2-amino-2-(1SR,2SR-2-carboxycyclopropan-1-yl)-4-(2-(trifluoromethyl)phenyl)butanoic acid], in assay [2], the IC50 was 0.48 µM.
